Measurements published in publication PMC3818031 (Acta Crystallographica Section F: Structural Biology and …, 2013).

Molecular target: T1, Ara1 (Saccharomyces cerevisiae, UniProt P38115)
T1 construct: Ni-NTA and Superdex 200; tag cleavage not mentioned; homodimer
Assay: X-ray crystallography of co-crystal, […] A
Details: co-crystallised with 5 mM NADPH, pH 6.5, 0.05 M CaCl2, 289 K; cofactor-binding site

SMILES: NC(=O)C1=CN([C@@H]2O[C@H](COP(=O)(O)OP(=O)(O)OC[C@H]3O[C@@H](n4cnc5c(N)ncnc54)[C@H](OP(=O)(O)O)[C@@H]3O)[C@@H](O)[C@H]2O)C=CC1 [NADPH]
- X-ray crystallography of co-crystal, 2.00 A: The structure of the Ara1–NADPH complex showed that a molecule of NADPH binds
